Test results taken from patent US12043632B2, “6-heteroaryloxy benzimidazoles and azabenzimidazoles as JAK2 inhibitors” (Ajax Therapeutics, Inc., priority 2020, dated 2024).

Target: T1, JAK2 (JH1domain-catalytic, Y1007F,Y1008F) kinase (Homo sapiens, UniProt O60674, Y1007F/Y1008F)
T1 construct: JAK2 (JH1domain-catalytic, Y1007F,Y1008F) kinase was expressed as N-terminal fusion; made in house; host or cells: transiently transfected HEK293 cells
Experiment: JAK2 JH1 Domain Binding Assay
Conditions: qPCR readout

T1 sequence (O60674 849-1124 Y1007F/Y1008F limits assumed): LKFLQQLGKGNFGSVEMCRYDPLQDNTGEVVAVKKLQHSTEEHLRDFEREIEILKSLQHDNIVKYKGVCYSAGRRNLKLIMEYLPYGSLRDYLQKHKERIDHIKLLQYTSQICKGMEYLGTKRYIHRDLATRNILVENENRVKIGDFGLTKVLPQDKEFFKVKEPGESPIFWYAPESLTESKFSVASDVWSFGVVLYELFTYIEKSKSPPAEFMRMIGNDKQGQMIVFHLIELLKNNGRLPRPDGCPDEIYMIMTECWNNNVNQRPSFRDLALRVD

Structure (SMILES)	Kd [µM]
Cn1c(Nc2cc(C(C)(C)C)n([C@@H]3CCOC3)n2)nc2ncc(Oc3cnn4cnnc4c3)c(Cl)c21 [Example I-15, (R)-6-([1,2,4]triazolo[4,3-b]pyridazin-7-yloxy)-N-(5-(tert-butyl)-1-(tetrahydrofuran-3-yl)-1H-pyrazol-3-yl)-7-chloro-1-methyl-1H-imidazo[4,5-b]pyridin-2-amine]	0.05 to 1
Cn1c(Nc2cc(C(C)(C)C)n([C@H]3CCOC3)n2)nc2ncc(Oc3cnn4cnnc4c3)c(Cl)c21 [Example I-16, (S)-6-([1,2,4]triazolo[4,3-b]pyridazin-7-yloxy)-N-(5-(tert-butyl)-1-(tetrahydrofuran-3-yl)-1H-pyrazol-3-yl)-7-chloro-1-methyl-1H-imidazo[4,5-b]pyridin-2-amine]	0.01 to 0.05
Cn1c(Nc2cc(C(C)(C)C#N)n([C@H]3CCOC3)n2)nc2ncc(Oc3cnc4ccnn4c3)c(Cl)c21 [Example I-17, (S)-2-(3-((7-chloro-1-methyl-6-(pyrazolo[1,5-a]pyrimidin-6-yloxy)-1H-imidazo[4,5-b]pyridin-2-yl)amino)-1-(tetrahydrofuran-3-yl)-1H-pyrazol-5-yl)-2-methylpropanenitrile]	0.01 to 0.05
Cn1c(Nc2cc(C(C)(C)C#N)n([C@@H]3CCOC3)n2)nc2ncc(Oc3cnc4ccnn4c3)c(Cl)c21 [Example I-18, (R)-2-(3-((7-chloro-1-methyl-6-(pyrazolo[1,5-a]pyrimidin-6-yloxy)-1H-imidazo[4,5-b]pyridin-2-yl)amino)-1-(tetrahydrofuran-3-yl)-1H-pyrazol-5-yl)-2-methylpropanenitrile]	0.01 to 0.05
CN1CC[C@H](n2nc(Nc3nc4ncc(Oc5cnc6sccc6c5)c(Cl)c4n3C)cc2C(C)(C)C)C1 [Example I-19, (S)—N-(5-(tert-butyl)-1-(1-methylpyrrolidin-3-yl)-1H-pyrazol-3-yl)-7-chloro-1-methyl-6-(thieno[2,3-b]pyridin-5-yloxy)-1H-imidazo[4,5-b]pyridin-2-amine]	0.01 to 0.05
CN1CC[C@@H](n2nc(Nc3nc4ncc(Oc5cnc6sccc6c5)c(Cl)c4n3C)cc2C(C)(C)C)C1 [Example I-20, (R)—N-(5-(tert-butyl)-1-(1-methylpyrrolidin-3-yl)-1H-pyrazol-3-yl)-7-chloro-1-methyl-6-(thieno[2,3-b]pyridin-5-yloxy)-1H-imidazo[4,5-b]pyridin-2-amine]	0.05 to 1
Cn1c(Nc2cc(C(C)(C)C)n([C@@H]3CCOC3)n2)nc2ncc(Oc3cnn4ccncc34)c(Cl)c21 [Example I-21, (R)—N-(5-(tert-butyl)-1-(tetrahydrofuran-3-yl)-1H-pyrazol-3-yl)-7-chloro-1-methyl-6-(pyrazolo[1,5-a]pyrazin-3-yloxy)-1H-imidazo[4,5-b]pyridin-2-amine]	< 0.01
Cn1c(Nc2cc(C(C)(C)C)n([C@H]3CCOC3)n2)nc2ncc(Oc3cnn4ccncc34)c(Cl)c21 [Example I-22, (S)—N-(5-(tert-butyl)-1-(tetrahydrofuran-3-yl)-1H-pyrazol-3-yl)-7-chloro-1-methyl-6-(pyrazolo[1,5-a]pyrazin-3-yloxy)-1H-imidazo[4,5-b]pyridin-2-amine]	< 0.01
Cn1c(Nc2cc(C(C)(C)C)n([C@H]3CCN(CCF)C3)n2)nc2ncc(Oc3cnn4ccnc4c3)c(Cl)c21 [Example I-25, (S)—N-(5-(tert-butyl)-1-(1-(2-fluoroethyl)pyrrolidin-3-yl)-1H-pyrazol-3-yl)-7-chloro-6-(imidazo[1,2-b]pyridazin-7-yloxy)-1-methyl-1H-imidazo[4,5-b]pyridin-2-amine]	0.01 to 0.05
Cn1c(Nc2cc(C(C)(C)C)n([C@@H]3CCN(CCF)C3)n2)nc2ncc(Oc3cnn4ccnc4c3)c(Cl)c21 [Example I-26, (R)—N-(5-(tert-butyl)-1-(1-(2-fluoroethyl)pyrrolidin-3-yl)-1H-pyrazol-3-yl)-7-chloro-6-(imidazo[1,2-b]pyridazin-7-yloxy)-1-methyl-1H-imidazo[4,5-b]pyridin-2-amine]	0.05 to 1
